Experimental findings from patent US12509444B2, “Compounds and methods for CD73 modulation and indications therefor” (Plexxikon Inc., priority 2019, dated 2025) are described below.

For assay [1], the target named is T1, human CD73 (Homo sapiens, UniProt P21589).
T1 construct: expressed in transfected cells
T1 sequence (P21589 27-549): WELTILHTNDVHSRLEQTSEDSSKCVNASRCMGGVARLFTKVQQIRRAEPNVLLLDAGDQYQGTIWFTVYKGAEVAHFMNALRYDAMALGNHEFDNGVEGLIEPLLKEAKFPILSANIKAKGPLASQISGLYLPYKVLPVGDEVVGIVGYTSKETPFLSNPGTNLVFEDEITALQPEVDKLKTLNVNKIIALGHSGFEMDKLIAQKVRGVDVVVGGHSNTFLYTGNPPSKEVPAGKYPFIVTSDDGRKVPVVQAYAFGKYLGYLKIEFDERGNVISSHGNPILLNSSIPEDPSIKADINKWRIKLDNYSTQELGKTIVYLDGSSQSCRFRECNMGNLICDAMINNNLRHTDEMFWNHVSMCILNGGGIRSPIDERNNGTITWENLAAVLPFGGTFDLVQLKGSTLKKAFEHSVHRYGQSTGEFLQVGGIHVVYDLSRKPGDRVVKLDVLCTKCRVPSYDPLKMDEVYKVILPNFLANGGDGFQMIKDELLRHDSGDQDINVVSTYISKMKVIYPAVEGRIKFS
In words: Inhibitor activity against CD73 in cell based assay (CD73 expressing CHO-K1 cells). The conditions noted are these: CHO-K1 cells expressing human CD73, 150 μM AMP, 4 hours of incubation; read-out: CHO-K1 CELL VARIANT: CD73 IC50. The method, boiled down: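 Stably transfected CHO-K1 cells expressing human CD73 (1×10^4/well) incubated 4 h with compound (8-point 1:3 titration, top 10 μM final, 0.2% DMSO) and 150 μM AMP. Residual AMP in supernatant measured by CellTiter-Glo luminescence with 1 μM ATP after 30 min at room temperature; IC50 by nonlinear regression of percent inhibition vs high/low controls.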

The target in assay [2] is T2, Human CD73 (amino acid residues 27-549) (Homo sapiens, UniProt P21589).
T2 construct: Human CD73 (amino acid residues 27-549); His tag (N); made in house; host or cells: E. coli
T2 sequence (P21589 27-549): T1 sequence (P21589 27-549)
In words: CD73 enzymatic assay (luciferase-based indirect assay, CellTiter-Glo). It is filed as biochemical. The conditions noted are these: 0.4 nM CD73, 150 μM AMP, 1 hour at room temperature. The method, boiled down: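 His-tagged human CD73 (27-549) from E. coli, 0.4 nM, with 150 μM AMP in 50 mM HEPES pH 7.4, 0.01% Tween 20; 1 h at room temperature. AMP remaining read by CellTiter-Glo 2.0 luminescence with 1 μM final ATP after 30 min. IC50 from nonlinear regression of % inhibition.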
In general terms: Cellular ATP, detected with luciferase, serves as a proxy for viable cell number.

By IC50 is commonly meant the concentration needed to halve the response being measured. In the case of `O=C(N[C@H]1CC[C@H](NS(=O)(=O)c2ccccc2)CC1)O[C@@H]1CCN(c2cn[nH]c(=O)c2Cl)C1` [P-0158, (R)-1-(5-chloro-6-oxo-1,6-dihydropyridazin-4-yl)pyrrolidin-3-yl ((1r,4R)-4-(phenylsulfonamido)cyclohexyl)carbamate], the IC50 in assay [1] and in assay [2] was 0.001 to 10 µM throughout.
For the compound `NCC(=O)N1CCC(NC(=O)O[C@@H]2CCN(c3cn[nH]c(=O)c3Cl)C2)CC1` [P-0159, (R)-1-(5-chloro-6-oxo-1,6-dihydropyridazin-4-yl)pyrrolidin-3-yl (1-glycylpiperidin-4-yl)carbamate], the half-maximal inhibitory concentration (IC50) in assay [1] and in assay [2] was 0.001 to 10 µM in each case.
For `CC(C)(C)OC(=O)NCC(=O)N1CCC(NC(=O)O[C@@H]2CCN(c3cn[nH]c(=O)c3Cl)C2)CC1` [P-0160, (R)-1-(5-chloro-6-oxo-1,6-dihydropyridazin-4-yl)pyrrolidin-3-yl (1-((tert-butoxycarbonyl)glycyl)piperidin-4-yl)carbamate], the 50% inhibitory concentration (IC50) in assay [1] and in assay [2] was 0.001 to 10 µM throughout.
As to `CC(=O)NCC(=O)N1CCC(NC(=O)O[C@@H]2CCN(c3cn[nH]c(=O)c3Cl)C2)CC1` [P-0161, (R)-1-(5-chloro-6-oxo-1,6-dihydropyridazin-4-yl)pyrrolidin-3-yl (1-(acetylglycyl)piperidin-4-yl)carbamate], the IC50 in assay [1] and in assay [2] was 0.001 to 10 µM in each case.
With `CCOC(=O)NCC(=O)N1CCC(NC(=O)O[C@@H]2CCN(c3cn[nH]c(=O)c3Cl)C2)CC1` [P-0162, ethyl (R)-(2-(4-((((1-(5-chloro-6-oxo-1,6-dihydropyridazin-4-yl)pyrrolidin-3-yl)oxy)carbonyl)amino)piperidin-1-yl)-2-oxoethyl) carbamate], the concentration for half-maximal inhibition (IC50) in assay [1] and in assay [2] was 0.001 to 10 µM throughout.
Take `CS(=O)(=O)NCC(=O)N1CCC(NC(=O)O[C@@H]2CCN(c3cn[nH]c(=O)c3Cl)C2)CC1` [P-0163, (R)-1-(5-chloro-6-oxo-1,6-dihydropyridazin-4-yl)pyrrolidin-3-yl (1-((methylsulfonyl)glycyl)piperidin-4-yl)carbamate]: the IC50 in assay [1] and in assay [2] was 0.001 to 10 µM throughout.
For the compound `O=C(CO)N[C@H]1CC[C@H](NC(=O)O[C@@H]2CCN(c3cn[nH]c(=O)c3Cl)C2)CC1` [P-0164, (R)-1-(5-chloro-6-oxo-1,6-dihydropyridazin-4-yl)pyrrolidin-3-yl ((1r,4R)-4-(2-hydroxyacetamido)cyclohexyl) carbamate], the IC50 in assay [1] and in assay [2] was 0.001 to 10 µM each time.
On to `CC(=O)N[C@H]1CC[C@H](NC(=O)O[C@@H]2CCN(c3cn[nH]c(=O)c3Cl)C2)CC1` [P-0165, (R)-1-(5-chloro-6-oxo-1,6-dihydropyridazin-4-yl)pyrrolidin-3-yl ((1r,4R)-4-acetamidocyclohexyl)carbamate], for which the half-maximal inhibitory concentration (IC50) in assay [1] and in assay [2] was 0.001 to 10 µM in each case.
For the compound `N#Cc1c(N2CC[C@@H](OC(=O)NC3CCNCC3)C2)cn[nH]c1=O` [P-0166, (R)-1-(5-cyano-6-oxo-1,6-dihydropyridazin-4-yl)pyrrolidin-3-yl piperidin-4-ylcarbamate], the IC50 in assay [1] and in assay [2] was 0.001 to 10 µM in each case.
For the compound `N[C@H]1C[C@H](NC(=O)O[C@@H]2CCN(c3cn[nH]c(=O)c3Cl)C2)C1` [P-0167, (R)-1-(5-chloro-6-oxo-1,6-dihydropyridazin-4-yl)pyrrolidin-3-yl ((1r,3R)-3-aminocyclobutyl)carbamate], the IC50 in assay [1] and in assay [2] was 0.001 to 10 µM throughout.
In the case of `O=C(Nc1ccc(F)cc1)N[C@H]1C[C@H](NC(=O)O[C@@H]2CCN(c3cn[nH]c(=O)c3Cl)C2)C1` [P-0168, (R)-1-(5-chloro-6-oxo-1,6-dihydropyridazin-4-yl)pyrrolidin-3-yl ((1r,3R)-3-(3-(4-fluorophenyl)ureido)cyclobutyl) carbamate], the IC50 in assay [1] and in assay [2] was 0.001 to 10 µM each time.
As for `CCOC(=O)N[C@H]1C[C@H](NC(=O)O[C@@H]2CCN(c3cn[nH]c(=O)c3Cl)C2)C1` [P-0169, (R)-1-(5-chloro-6-oxo-1,6-dihydropyridazin-4-yl)pyrrolidin-3-yl ethyl ((1R,3r)-cyclobutane-1,3-diyl)dicarbamate], the IC50 in assay [1] and in assay [2] was 0.001 to 10 µM throughout.
Consider `CS(=O)(=O)N[C@H]1C[C@H](NC(=O)O[C@@H]2CCN(c3cn[nH]c(=O)c3Cl)C2)C1` [P-0170, (R)-1-(5-chloro-6-oxo-1,6-dihydropyridazin-4-yl)pyrrolidin-3-yl ((1r,3R)-3-(methylsulfonamido)cyclobutyl)carbamate], for which the IC50 in assay [1] and in assay [2] was 0.001 to 10 µM in each case.
In the case of `O=C(N[C@H]1C[C@H](NS(=O)(=O)c2ccccc2)C1)O[C@@H]1CCN(c2cn[nH]c(=O)c2Cl)C1` [P-0171, (R)-1-(5-chloro-6-oxo-1,6-dihydropyridazin-4-yl)pyrrolidin-3-yl ((1r,3R)-3-(phenylsulfonamido)cyclobutyl) carbamate], the 50% inhibitory concentration (IC50) in assay [1] and in assay [2] was 0.001 to 10 µM in each case.
Take `O=CN[C@H]1C[C@H](NC(=O)O[C@@H]2CCN(c3cn[nH]c(=O)c3Cl)C2)C1` [P-0172, (R)-1-(5-chloro-6-oxo-1,6-dihydropyridazin-4-yl)pyrrolidin-3-yl ((1r,3R)-3-formamidocyclobutyl) carbamate]: the half-maximal inhibitory concentration (IC50) in assay [1] and in assay [2] was 0.001 to 10 µM each time.
`O=C(NC1CCCC1)N[C@H]1CC[C@H](NC(=O)O[C@@H]2CCN(c3cn[nH]c(=O)c3Cl)C2)CC1` [P-0173, (R)-1-(5-chloro-6-oxo-1,6-dihydropyridazin-4-yl)pyrrolidin-3-yl ((1r,4R)-4-(3-cyclopentylureido)cyclohexyl) carbamate]: the half-maximal inhibitory concentration (IC50) in assay [1] and in assay [2] was 0.001 to 10 µM throughout.
On to `O=C(NC1CCCCC1)N[C@H]1CC[C@H](NC(=O)O[C@@H]2CCN(c3cn[nH]c(=O)c3Cl)C2)CC1` [P-0174, (R)-1-(5-chloro-6-oxo-1,6-dihydropyridazin-4-yl)pyrrolidin-3-yl ((1r,4R)-4-(3-cyclohexylureido)cyclohexyl) carbamate], for which the IC50 in assay [1] and in assay [2] was 0.001 to 10 µM throughout.
Consider `O=C(N[C@H]1CC[C@H](NS(=O)(=O)c2ccc(F)cc2)CC1)O[C@@H]1CCN(c2cn[nH]c(=O)c2Cl)C1` [P-0175, (R)-1-(5-chloro-6-oxo-1,6-dihydropyridazin-4-yl)pyrrolidin-3-yl ((1r,4R)-4-((4-fluorophenyl)sulfonamido)cyclohexyl)carbamate], for which the IC50 in assay [1] and in assay [2] was 0.001 to 10 µM throughout.
Turning to `O=C(N[C@H]1CC[C@H](NS(=O)(=O)c2ccccc2F)CC1)O[C@@H]1CCN(c2cn[nH]c(=O)c2Cl)C1` [P-0176, (R)-1-(5-chloro-6-oxo-1,6-dihydropyridazin-4-yl)pyrrolidin-3-yl ((1r,4R)-4-((2-fluorophenyl)sulfonamido)cyclohexyl)carbamate], the half-inhibitory concentration (IC50) in assay [1] and in assay [2] was 0.001 to 10 µM in each case.
In the case of `O=C(NCC1(CCl)CC(NC(=O)O[C@@H]2CCN(c3cn[nH]c(=O)c3Cl)C2)C1)Nc1ccc(F)cc1` (stereo partly drawn) [P-0177, (R)-1-(5-chloro-6-oxo-1,6-dihydropyridazin-4-yl)pyrrolidin-3-yl (3-(chloromethyl)-3-((3-(4-fluorophenyl)ureido)methyl)cyclobutyl)carbamate], the concentration for half-maximal inhibition (IC50) in assay [1] and in assay [2] was 0.001 to 10 µM in each case.
`O=C(Nc1ccc(F)cc1)N[C@H]1CC[C@H](NC(=O)O[C@@H]2CCN(c3cn[nH]c(=O)c3Cl)C2)CC1` [P-0178, (R)-1-(5-chloro-6-oxo-1,6-dihydropyridazin-4-yl)pyrrolidin-3-yl ((1r,4R)-4-(3-(4-fluorophenyl)ureido)cyclohexyl)carbamate]: the IC50 in assay [1] and in assay [2] was 0.001 to 10 µM each time.
Take `COC(=O)[C@H]1CC[C@@H](NC(=O)O[C@@H]2CCN(c3cn[nH]c(=O)c3Cl)C2)CC1` [P-0179, methyl (1S,4s)-4-(((((R)-1-(5-chloro-6-oxo-1,6-dihydropyridazin-4-yl)pyrrolidin-3-yl)oxy)carbonyl)amino) cyclohexane-1-carboxylate]: the 50% inhibitory concentration (IC50) in assay [1] and in assay [2] was 0.001 to 10 µM throughout.
For the compound `O=C(N[C@H]1CC[C@@H](C(=O)O)CC1)O[C@@H]1CCN(c2cn[nH]c(=O)c2Cl)C1` [P-0180, (1S,4s)-4-(((((R)-1-(5-chloro-6-oxo-1,6-dihydropyridazin-4-yl)pyrrolidin-3-yl)oxy)carbonyl)amino) cyclohexane-1-carboxylic acid], the half-inhibitory concentration (IC50) in assay [1] lay within 10 to 100 µM; in assay [2], 0.001 to 10 µM.
